Experimental data published in patent US11369614B2, “Telodendrimers with riboflavin moieties and nanocarriers and methods of making and using same” (priority 2017, dated 2022).

Tested on: SKOV3 xenograft tumor
Assay: In vivo and ex vivo tumor targeting by fluorescence imaging
Set-up: species or system nude mice
Details: i.v.
Protocol: Raji lymphoma, MDA-MB-231, and SKOV3 xenograft tumor bearing mice model were established by subcutaneous injection of 1×10^7 cells in 100 μL of Matrigel and PBS (1:1 v/v) at the right or left flank of female nude mice aged 4-6 weeks. […] Then the DiD-DOX co-loaded Rf-containing nanoformulations were filtered with 0.22 am sterile filter. Free DiD in PBS was used as the control group. All the formulations were intravenously injected through tail vein. The mice were anaesthetized and imaged by IVIS® (In vivo Imaging System) 200 (perkinElmer) at 0.5, 1, 2, 4, 8, 24, 48, 72 h different time points with the ex/em 625/700 nm. Finally, the mice were euthanized, tumor and all the major organs were taken out for ex vivo imaging. Living Image software (Caliper Life Sciences) were used to define and measure the fluorescence intensity in the place of interest.
Mice were euthanized in the following day. […] The nuclei were stained by DAPI.

CCCCCCCCCCCCCCCCCCN1/C(=C/C=C/C=C/C2=[N+](CCCCCCCCCCCCCCCCCC)c3ccccc3C2(C)C)C(C)(C)c2ccccc21.[O-][Cl+3]([O-])([O-])[O-] [free DiD, 1,1′-dioctadecyl-3,3,3,3′,3′-tetramethylindodicarbocyanine perchlorate]
tumor accumulation (in vivo imaging): No specific tumor accumulation
